This passage reports GC-MS product analysis results from PMC10022577 (Chem, 2023).

The experiment addresses T1, AlbS (albireticulene synthase) (Streptomyces albireticuli, UniProt A0A2A2D8W5).
T1 sequence (A0A2A2D8W5 1-369): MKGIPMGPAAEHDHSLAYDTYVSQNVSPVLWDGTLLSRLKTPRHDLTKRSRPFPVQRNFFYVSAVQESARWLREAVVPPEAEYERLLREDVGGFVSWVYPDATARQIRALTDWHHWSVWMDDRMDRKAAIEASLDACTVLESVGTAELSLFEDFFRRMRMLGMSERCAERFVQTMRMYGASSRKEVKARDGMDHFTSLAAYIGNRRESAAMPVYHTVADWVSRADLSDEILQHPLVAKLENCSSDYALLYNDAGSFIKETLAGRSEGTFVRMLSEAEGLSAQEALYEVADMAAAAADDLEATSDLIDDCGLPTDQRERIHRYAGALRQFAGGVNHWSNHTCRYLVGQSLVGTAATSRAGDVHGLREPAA
The experiment can be described thus: GC-MS product analysis. The class given is biochemical. The following applies: products: five sesquiterpenes (3-7).

For the molecule `CC(C)=CCC/C(C)=C/CC/C(C)=C/COP(=O)(O)OP(=O)(O)O` [FPP], the GC-MS product analysis entry is “GC-MS analysis revealed that FPP was converted into five sesquiterpenes”.
